{"source": "patent US20260053767A1", "about": "“Hepatoprotective Compositions And Methods” (Jemyll, Ltd., priority 2022, published 2026)", "origin": "cited, not measured here", "conditions": "reported: adipose tissue inflammation, insulin resistance, non-alcoholic fatty liver disease; cited from earlier work", "data": [{"compound": "CCCCCCCCCCCC(=O)O", "note": "[lauric acid]", "values": [{"measurement": "effects on the liver and other tissues", "value": "significant adverse effects on the liver and other tissues"}]}]}
